From patent US11473089B2, “Aptamer for ADAMTS5 and use for aptamer for ADAMTS5” (RIBOMIC INC., priority 2017, dated 2022)

Columns and labels:
[1] = target: T1, ADAMTS5 (Homo sapiens, UniProt Q9UNA0); experiment: ADAMTS5 enzyme inhibition, aggrecan G1-IGD-G2 cleavage, sandwich ELISA detection (evaluation method 2); type: biochemical; conditions: Table 6; 2 nM aptamer; 0.2 nM ADAMTS5, 400 nM substrate, 30 min
T1 construct: purchased R&D systems
T1 sequence (Q9UNA0 262-930): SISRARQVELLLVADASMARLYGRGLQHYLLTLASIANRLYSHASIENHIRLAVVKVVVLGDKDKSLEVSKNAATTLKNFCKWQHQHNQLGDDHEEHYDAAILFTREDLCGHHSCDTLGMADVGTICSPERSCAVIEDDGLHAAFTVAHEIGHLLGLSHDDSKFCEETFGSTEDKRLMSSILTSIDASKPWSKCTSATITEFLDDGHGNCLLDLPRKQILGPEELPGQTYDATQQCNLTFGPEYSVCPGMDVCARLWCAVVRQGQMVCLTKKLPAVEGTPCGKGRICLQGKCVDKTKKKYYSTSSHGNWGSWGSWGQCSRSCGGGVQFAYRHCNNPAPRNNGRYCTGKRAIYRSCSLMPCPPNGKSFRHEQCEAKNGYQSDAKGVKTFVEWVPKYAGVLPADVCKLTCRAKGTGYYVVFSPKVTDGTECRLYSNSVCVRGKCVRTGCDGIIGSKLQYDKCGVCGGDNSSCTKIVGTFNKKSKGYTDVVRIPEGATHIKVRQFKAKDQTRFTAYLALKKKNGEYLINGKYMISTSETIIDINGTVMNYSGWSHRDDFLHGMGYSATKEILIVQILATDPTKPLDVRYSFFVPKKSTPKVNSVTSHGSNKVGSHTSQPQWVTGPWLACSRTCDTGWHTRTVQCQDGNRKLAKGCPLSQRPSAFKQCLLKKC
Experimental: On the other hand, the aptamers having the sequences shown by the sequences of SEQ ID NOs: 11(34)-11(35) and SEQ ID NO: 15 were evaluated by the following method (evaluation method 2). The cleavage reaction of the substrate (aggrecan G1-IGD-G2) by ADAMTS5 was performed in the same manner as in Example 1 except the following points. The differences are that the final concentrations of ADAMTS5 and the substrate were respectively 0.2 nM and 400 nM (48 μg/mL), and that the enzyme reaction time was 30 min. After the reaction, the reaction was stopped by adding an excess amount of an ADAMTS5 small molecule inhibitor. The cleaved substrate was quantified by a sandwich ELISA method using two kinds of anti-aggrecan antibodies. […] Using this, the amount of cleaved substrate can be quantified. […] The inhibition rate of the test substance was calculated using the following equation. inhibition rate (%)=(PE−Papt)/(PE−P0)×100 wherein PE is the amount of a cleaved substrate with the addition of ADAMTS5, Papt is the amount of a cleaved substrate with the addition of a test substance, and P0 is the residual amount of a cleaved substrate without the addition of ADAMTS5.
The measurement results of the inhibitory activity of the aptamers having the sequences shown in SEQ ID NOs: 11(34)-11(35) and SEQ ID NO: 15 are shown in Table 6, evaluation method 2. […] “n.d.” means not determined. […]

[2] = test system: HFLS-OA cells; experiment: aggrecan cleavage inhibitory activity in synovial cells; type: cell-based, human; conditions: Table 11, culture supernatant after 3 days
Experimental: The aggrecan cleavage inhibitory activity of the aptamers shown in SEQ ID NOs: 11(34), 28(13), 28(15), 28(18) in synovial cells was measured. The measurement was performed by the following method. Synovial cells (HFLS-OA cells) (manufactured by Cell Applications) derived from human knee osteoarthritis patients were seeded at 2×10^4 cells per well, and cultured for 16-24 hr. The culture method followed the manual of Cell Applications. After culturing, the medium was removed, the cells were washed with Basal Medium (manufactured by Cell Applications), and 500 ng of aggrecan G1-IGD-G2 (manufactured by R&D systems) diluted with Basal Medium as a substrate was added. The aptamer was added simultaneously with the substrate to the samples to be evaluated for inhibition by the aptamer. The cells were kept cultured and the culture supernatant was collected after 3 days. The added substrate is cleaved during culture by substrate-cleaving enzymes such as ADAMTS5 secreted from the HFLS-OA cells. The amount of the cleaved substrate fragment contained in the culture supernatant was quantified by the ELISA method described in Example 5. The substrate cleavage efficiency in this evaluation system was 1-8%. The nucleic acid shown in SEQ ID NO: 15 was used as a negative control.

## 15 (AUUGGCACGGAGACAGCGCUCGCUUCUCGAUCACCAAU; listed as RNA, chemistry not given here) [compound 15]
[1]
  inhibitory activity (%) evaluation method 2: 16.5%
[2]; 3 nM aptamer
  inhibition rate (%) 3 nM: 10%
[2]; 30 nM aptamer
  inhibition rate (%) 30 nM: 8%
[2]; 300 nM aptamer
  inhibition rate (%) 300 nM: 37%
